Reference: publication PMC6467259 (Journal of the American Chemical Society, 2018)

Target: PagF (Planktothrix agardhii, UniProt F5B6Z0, F222A)
Experiment: crystal structure of the complex, […] Å
Settings: MgCl2; isoprene donor-binding site

`CC(C)=CCC/C(C)=C/COP(=O)(O)OP(=O)(O)O` [GPP] was tested, and the “crystal structure of the complex, 1.85 Å” value was “crystals of Phe222→Ala PagF in complex with GPP and MgCl2”.
